ChEMBL document CHEMBL1201862, “PubChem BioAssay data set” (2004)
The source made the active and inactive calls.

Columns and labels:
[1] = growth suppression of beta-catenin-knockout colon cells, dose response, cell-based, HCT116, human colon tumor (AID 1045); format: functional;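 also: HCT116 colon tumor cells with beta catenin knocked out; cells exposed to compound for 60 hours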
HEK293 = assay: cells; conditions: Homo sapiens;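 also: potency for activating a luciferase reporter driven by the short GAA30 frataxin promoter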
[2] = NIH-3T3 fibroblast cytotoxicity, dose response, cytotoxicity control, cell-based, fluorescence, Alamar Blue, secondary assay (AID 2327); format: functional;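 also: NIH-3T3 mouse fibroblasts cultured with fluconazole at 8 µg/mL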
Nonstructural protein 1 = Nonstructural protein 1 (Influenza A virus, UniProt Q194T2); format: functional, Influenza A virus (A/California/07/2009(H1N1))
Sequence of Nonstructural protein 1 (Q194T2 whole entry): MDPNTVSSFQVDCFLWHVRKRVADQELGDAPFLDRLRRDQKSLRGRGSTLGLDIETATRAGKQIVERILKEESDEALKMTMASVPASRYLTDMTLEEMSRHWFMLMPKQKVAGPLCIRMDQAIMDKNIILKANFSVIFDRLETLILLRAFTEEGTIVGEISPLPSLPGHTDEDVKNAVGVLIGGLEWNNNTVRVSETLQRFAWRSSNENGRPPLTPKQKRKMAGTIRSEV

BJ = assay: cytotoxicity toward BJ-TERT fibroblasts, dose response, cell-based, RAS-independent, luminescence (AID 1933); format: functional; conditions: Homo sapiens
Hexokinase HKDC1 = Hexokinase HKDC1 (Homo sapiens, UniProt Q2TB90); assay: HKDC1 hexokinase inhibitors, dose response, biochemical, W721R variant (AID 504729); format: functional
Sequence of Hexokinase HKDC1 (Q2TB90 whole entry, the tested form may be a part): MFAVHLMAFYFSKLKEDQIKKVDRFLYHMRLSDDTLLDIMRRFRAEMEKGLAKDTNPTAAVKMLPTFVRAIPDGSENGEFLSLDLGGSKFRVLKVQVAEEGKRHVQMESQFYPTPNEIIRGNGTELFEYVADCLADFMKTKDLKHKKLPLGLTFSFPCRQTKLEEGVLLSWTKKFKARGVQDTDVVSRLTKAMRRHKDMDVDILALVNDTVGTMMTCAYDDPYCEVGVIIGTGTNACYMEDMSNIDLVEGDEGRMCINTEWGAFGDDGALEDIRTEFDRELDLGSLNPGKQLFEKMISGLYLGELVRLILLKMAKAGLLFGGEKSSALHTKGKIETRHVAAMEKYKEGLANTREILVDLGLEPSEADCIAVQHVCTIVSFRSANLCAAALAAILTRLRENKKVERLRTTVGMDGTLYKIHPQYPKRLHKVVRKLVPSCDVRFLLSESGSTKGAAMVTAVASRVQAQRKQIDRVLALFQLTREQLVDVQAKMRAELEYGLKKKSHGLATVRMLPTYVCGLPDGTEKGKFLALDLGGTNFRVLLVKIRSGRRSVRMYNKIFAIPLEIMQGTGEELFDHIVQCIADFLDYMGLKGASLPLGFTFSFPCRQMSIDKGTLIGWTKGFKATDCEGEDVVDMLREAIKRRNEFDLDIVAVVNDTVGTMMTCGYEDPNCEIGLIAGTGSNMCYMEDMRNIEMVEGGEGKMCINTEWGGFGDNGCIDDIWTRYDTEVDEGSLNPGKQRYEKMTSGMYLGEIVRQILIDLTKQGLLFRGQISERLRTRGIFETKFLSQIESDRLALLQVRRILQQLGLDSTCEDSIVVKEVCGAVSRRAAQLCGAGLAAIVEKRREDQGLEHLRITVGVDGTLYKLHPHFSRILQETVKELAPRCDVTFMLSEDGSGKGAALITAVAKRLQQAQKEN

[3] = Fluorescence-based cell-based high throughput dose response assay for inhibitors of the interaction of nucleotide-binding oligomerization domain containing 2 (NOD2) and the receptor-interacting serine-threonine kinase 2 (RIPK2).; format: functional; conditions: Homo sapiens

O=[N+]([O-])c1ccc(Sc2nc3ccccc3o2)c([N+](=O)[O-])c1
EC50 [1]: 5.57 µM (active) | EC50 (HEK293): > 59.6 µM (inactive) | EC50 [2]: 5.82 µM (inconclusive) | IC50 (Nonstructural protein 1): 34.2 µM (active) | EC50 (BJ): 3.27 µM (active) | IC50 (Hexokinase HKDC1): 37.4 µM (inactive) | IC50 [3]: 1.92 µM (active)
